Reference: patent US9730449B2, “Thiazole compound and its use in pest control” (Sumitomo Chemical Company, Limited, priority 2014, dated 2017)
Read-outs that look alike come from different tables or passages of the source.

Columns and labels:
[1] = system: diamondback moths (Plutella xylostella); conditions: 500 ppm test solution, 20 ml scattered on cabbage; second-instar larvae; 25° C.; after 5 days
Procedure: 20 ml of the above-described test solution was scattered on cabbages (Brassicae oleracea) in a third- or fourth-leaf stage. After air-drying the test solution, the overground portion was cut, collected, and accommodated in a polyethylene cup (capacity of 100 ml) together with 5 second-instar larvae of diamondback moths (Plutella xylostella), followed by storing at 25° C.

[2] = system: common houseflies (Musca domestica); conditions: 500 ppm, 0.7 ml on filter paper, sucrose bait; female imagoes; after 24 hours
Source text: 10 female imagoes of common houseflies (Musca domestica) were released in the polyethylene cup, which was then covered with a lid.

[3] = system: German cockroaches (Blattella germanica); conditions: 500 ppm, 0.7 ml on filter paper, sucrose bait; male imagoes; after 24 hours
[4] = system: common house mosquito (Culex pipiens pallens); assay: whole plant or invertebrate; assay type: in vivo; conditions: concentration of active ingredients of 3.5 ppm in ion exchange water, final-instar larvae, after 24 hours
[5] = system: two-spotted spider mite (Tetranychus urticae); assay: Test Example 6: kidney bean spray, two-spotted spider mite controlling value; assay type: in vivo; conditions: 500 ppm sprayed on kidney beans; female imagoes; 25° C.; 7 days after the treatment
Source text: 10 female imagoes of two-spotted spider mite (Tetranychus urticae) were released on kidney beans immediately after the primary leaf development. The next day, the test solution was sprayed at an amount in which the test solution dripped, using a spray gun. […] Controlling value (%)=(1−the number of surviving female imagoes in a treatment section/the number of surviving female imagoes in a non-treatment section)×100

[6] = system: gambiae sensu stricto (Anopheles gambiae); assay: whole plant or invertebrate; assay type: in vivo; conditions: 48 h, 167 ppm in acetone, 0.3 μl topically applied to chest back plate of females, 2 days after the topical application
Procedure: 10 mg of each of the compounds (1a-1), (1a-2), (1a-4), (1a-5), (1a-6), (1a-7), (1a-19), (1a-20), (1a-22), (1a-23), (1a-32), (1a-38), (1a-39), (1a-77), (1b-1), and (1b-2) of the present invention was dissolved in 3 ml of acetone. Test solutions were prepared by diluting each of the above solutions 20-fold with acetone (concentration of active ingredients of 167 ppm). […] The test was performed on 10 imagos per group, after the topical application, the imagos were transferred to a cup, and 5 percent sugar water was given.

[7] = system: German cockroaches (Blattella germanica); assay: whole plant or invertebrate
Source text: 2 male imagoes of German cockroaches (Blattella germanica) were released in the polyethylene cup, which was then covered with a lid.

SMILES: CSc1cnc(OCc2cccnc2)s1 [Compound 1a-9]
- Mortality [1]: ≥ 80%

SMILES: COc1ccc(F)cc1COc1ncc(SC)s1 [Compound 1a-23]
- Mortality [2]: 100%

SMILES: CSc1cnc(OCc2c(C)cccc2F)s1 [Compound 1a-16]
- Mortality [3]: 100%

SMILES: CSc1cnc(OCc2ccccc2C)s1 [Compound 1a-2]
- Mortality [3]: 100%

SMILES: CCSc1cnc(OCc2ccccc2C)s1 [Compound 1a-201, 2-(2-methylbenzyloxy)-5-ethylthiothiazole]
- mortality at 3.5 ppm [4]: ≥ 90%

SMILES: COc1ccccc1COc1nc(C)c(SC)s1 [Compound 1a-6]
- Controlling value [5]: ≥ 90%

SMILES: CSc1cnc(OCc2cscc2C)s1 [Compound 1a-20]
- Mortality [3]: 100%

SMILES: COc1ccc(OC)c(COc2ncc(SC)s2)c1 [Compound 1a-24]
- Mortality [2]: 100%

SMILES: COc1ccccc1COc1ncc([S+](C)[O-])s1 (centres unmarked) [Compound 1b-1, 2-(2-methoxybenzyloxy)-5-methylsulfinylthiazole]
- mortality at 167 ppm [6]: ≥ 90%

SMILES: CSc1cnc(OCc2cc(F)ccc2C)s1 [Compound 1a-19]
- Mortality ([7]; 500 ppm, 0.7 ml on filter paper, sucrose bait, male imagoes, after 6 days): 100%

SMILES: COc1ccccc1COc1ncc(SC)s1 [Compound 1a-1, 2-(2-methoxybenzyloxy)-5-methylthiothiazole]
- mortality at 500 ppm ([7]; Blattella germanica, 144 h): 100%
- mortality at 3.5 ppm [4]: ≥ 90%
- mortality at 167 ppm [6]: ≥ 90%

SMILES: CSc1cnc(OCc2ccoc2)s1 [Compound 1a-75]
- Mortality [2]: 100%
